Test results taken from ChEMBL document CHEMBL5696442, “Discovery of type II inhibitors of TGFβ-activated kinase 1 (TAK1) and mitogen-activated protein kinase kinase kinase kinase 2 (MAP4K2)” (J Med Chem, 2015).
Calls of active or inactive are those of the source. No cut-off for these calls is given here.

Assays:
[1] = target: Calcium/calmodulin-dependent protein kinase type II subunit delta (Homo sapiens) (UniProt Q13557); test: Inhibition of CAMK2d K1 labeling site harbouring IPTGQEYAAKIINTKK in human Huh-7 cells at 1 uM by KiNativ Profiling analysis relative to control; type: cell-based
[2] = target: T1, Serine/threonine-protein kinase ULK1 (Homo sapiens) (UniProt O75385); test: Inhibition of ULK1 (unknown origin) at 10 uM by Ambit Kinomescan binding assay
T1 sequence (whole entry): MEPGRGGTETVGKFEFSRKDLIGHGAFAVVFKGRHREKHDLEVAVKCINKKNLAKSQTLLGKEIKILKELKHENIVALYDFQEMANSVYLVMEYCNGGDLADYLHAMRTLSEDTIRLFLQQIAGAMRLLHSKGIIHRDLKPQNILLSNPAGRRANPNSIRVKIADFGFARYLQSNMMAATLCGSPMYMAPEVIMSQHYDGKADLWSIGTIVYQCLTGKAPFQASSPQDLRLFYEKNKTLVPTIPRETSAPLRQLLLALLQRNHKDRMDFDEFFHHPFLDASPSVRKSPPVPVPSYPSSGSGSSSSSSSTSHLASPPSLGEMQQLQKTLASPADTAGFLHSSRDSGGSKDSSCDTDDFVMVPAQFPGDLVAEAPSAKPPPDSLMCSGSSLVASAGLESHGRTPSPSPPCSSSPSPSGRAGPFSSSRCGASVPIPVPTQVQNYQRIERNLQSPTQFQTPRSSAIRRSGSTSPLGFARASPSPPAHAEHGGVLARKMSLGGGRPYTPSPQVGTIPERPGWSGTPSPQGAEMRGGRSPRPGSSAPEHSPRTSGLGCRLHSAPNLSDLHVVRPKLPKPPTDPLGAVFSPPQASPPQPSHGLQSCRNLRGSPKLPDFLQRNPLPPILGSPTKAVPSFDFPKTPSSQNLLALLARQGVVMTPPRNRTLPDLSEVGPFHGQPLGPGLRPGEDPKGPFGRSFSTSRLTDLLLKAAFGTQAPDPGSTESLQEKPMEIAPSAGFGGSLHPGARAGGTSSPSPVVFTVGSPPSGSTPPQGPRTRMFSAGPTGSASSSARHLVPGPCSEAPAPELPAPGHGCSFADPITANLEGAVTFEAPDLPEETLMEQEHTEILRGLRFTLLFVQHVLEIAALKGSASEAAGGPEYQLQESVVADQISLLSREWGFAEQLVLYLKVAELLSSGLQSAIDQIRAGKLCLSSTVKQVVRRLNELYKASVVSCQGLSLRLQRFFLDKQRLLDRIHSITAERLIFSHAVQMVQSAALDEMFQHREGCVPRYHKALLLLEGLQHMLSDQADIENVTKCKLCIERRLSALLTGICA

[3] = target: Activin receptor type-2A (Homo sapiens) (UniProt P27037); test: Inhibition of ACVR2A (unknown origin) at 1 uM by Ambit Kinomescan binding assay relative to control
[4] = target: T2, Mitogen-activated protein kinase kinase kinase kinase 2 (Homo sapiens) (UniProt Q12851); test: Inhibition of MAP4K2 (unknown origin) at 1 uM by Ambit Kinomescan binding assay relative to control; values are per cent of control
T2 sequence (whole entry): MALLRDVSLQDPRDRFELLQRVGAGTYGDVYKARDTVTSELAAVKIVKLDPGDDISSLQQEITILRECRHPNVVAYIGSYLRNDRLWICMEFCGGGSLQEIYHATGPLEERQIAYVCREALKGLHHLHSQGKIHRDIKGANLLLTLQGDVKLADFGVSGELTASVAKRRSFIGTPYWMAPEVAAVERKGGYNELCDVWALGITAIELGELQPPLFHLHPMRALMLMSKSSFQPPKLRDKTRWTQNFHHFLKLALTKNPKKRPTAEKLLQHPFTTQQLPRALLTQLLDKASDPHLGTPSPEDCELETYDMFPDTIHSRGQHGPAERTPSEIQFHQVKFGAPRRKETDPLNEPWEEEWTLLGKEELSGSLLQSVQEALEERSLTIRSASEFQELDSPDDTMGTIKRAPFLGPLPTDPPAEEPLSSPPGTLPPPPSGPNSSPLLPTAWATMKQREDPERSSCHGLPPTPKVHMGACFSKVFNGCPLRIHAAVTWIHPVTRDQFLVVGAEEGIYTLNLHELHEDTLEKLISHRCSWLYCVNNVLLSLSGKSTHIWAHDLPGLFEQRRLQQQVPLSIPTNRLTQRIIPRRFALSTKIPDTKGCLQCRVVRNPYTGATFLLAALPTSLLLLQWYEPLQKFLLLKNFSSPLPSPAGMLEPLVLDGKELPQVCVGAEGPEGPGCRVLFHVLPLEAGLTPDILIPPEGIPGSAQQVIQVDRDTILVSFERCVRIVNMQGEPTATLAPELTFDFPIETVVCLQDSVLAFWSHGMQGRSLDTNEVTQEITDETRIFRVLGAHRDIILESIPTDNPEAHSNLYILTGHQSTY

Sequence of Calcium/calmodulin-dependent protein kinase type II subunit delta (Homo sapiens) (Q13557 whole entry): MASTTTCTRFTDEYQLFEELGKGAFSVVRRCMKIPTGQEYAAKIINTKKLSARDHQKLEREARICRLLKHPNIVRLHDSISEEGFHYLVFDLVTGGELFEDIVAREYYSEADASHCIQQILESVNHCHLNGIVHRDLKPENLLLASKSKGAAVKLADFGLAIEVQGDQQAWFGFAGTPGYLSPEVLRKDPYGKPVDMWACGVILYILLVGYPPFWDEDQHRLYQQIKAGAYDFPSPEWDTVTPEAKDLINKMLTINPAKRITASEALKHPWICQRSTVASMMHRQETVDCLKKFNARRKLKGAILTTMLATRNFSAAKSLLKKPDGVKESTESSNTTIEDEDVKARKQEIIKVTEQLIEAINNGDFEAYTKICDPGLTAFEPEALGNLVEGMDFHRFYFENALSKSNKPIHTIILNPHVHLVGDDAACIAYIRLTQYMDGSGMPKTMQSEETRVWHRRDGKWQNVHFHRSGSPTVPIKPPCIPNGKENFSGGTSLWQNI
Sequence of Activin receptor type-2A (Homo sapiens) (P27037 whole entry): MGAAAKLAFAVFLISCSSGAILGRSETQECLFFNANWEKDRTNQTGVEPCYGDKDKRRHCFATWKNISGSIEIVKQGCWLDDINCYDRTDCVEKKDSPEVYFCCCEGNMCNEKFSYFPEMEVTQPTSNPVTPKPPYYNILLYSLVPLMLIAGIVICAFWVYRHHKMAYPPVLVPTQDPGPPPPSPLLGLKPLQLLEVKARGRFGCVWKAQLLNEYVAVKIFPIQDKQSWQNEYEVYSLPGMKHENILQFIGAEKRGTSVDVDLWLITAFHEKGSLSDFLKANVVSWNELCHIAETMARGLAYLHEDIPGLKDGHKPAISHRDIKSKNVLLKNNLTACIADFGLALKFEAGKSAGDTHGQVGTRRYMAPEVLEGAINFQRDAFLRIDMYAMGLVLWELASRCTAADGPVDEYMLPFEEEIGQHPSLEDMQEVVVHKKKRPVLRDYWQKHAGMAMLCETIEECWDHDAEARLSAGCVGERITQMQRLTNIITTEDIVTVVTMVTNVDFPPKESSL

SMILES	inhibition [1]	inhibition [2]	inhibition [3]	percent of control [4]
CCN1CCN(Cc2ccc(NC(=O)c3ccc(C)c(Oc4ccnc5[nH]ccc45)c3)cc2C(F)(F)F)CC1	4.4%	inactive		
CCN1CCN(Cc2ccc(NC(=O)c3ccc(C)c(/C=C/c4cnc5[nH]ccc5c4OC)c3)cc2C(F)(F)F)CC1			100%	3.2%
